In one experiment the target is T1, SIRT-2 (Homo sapiens, UniProt Q8IXJ6).
T1 sequence (Q8IXJ6 1-389): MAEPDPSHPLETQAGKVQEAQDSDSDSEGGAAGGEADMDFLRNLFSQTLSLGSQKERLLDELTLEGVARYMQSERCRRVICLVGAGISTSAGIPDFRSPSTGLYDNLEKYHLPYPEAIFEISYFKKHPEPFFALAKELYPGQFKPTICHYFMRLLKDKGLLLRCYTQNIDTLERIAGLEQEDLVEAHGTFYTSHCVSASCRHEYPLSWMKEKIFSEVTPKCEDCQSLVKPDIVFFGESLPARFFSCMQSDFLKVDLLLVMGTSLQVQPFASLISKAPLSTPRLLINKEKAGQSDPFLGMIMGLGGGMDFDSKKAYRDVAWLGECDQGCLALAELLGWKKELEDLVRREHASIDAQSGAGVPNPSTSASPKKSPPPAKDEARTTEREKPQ
Nature of the experiment: Inhibition of sirtuins, SIRT-2. The conditions noted are these: Table 3 SIRT. Type of experiment: biochemical. The source says:
Inhibition of Sirtuins, Matrix Metalloproteinase, Bromodomains was Also Confirmed Using Standard Protocols and the Results are Present in Table 2.

The target of the next experiment is T2, PIK4CB (Homo sapiens, UniProt Q9UBF8).
T2 construct: T7 phage fusion (most assays) or DNA tag for qPCR (HEK-293-made kinases); made in house
The experiment can be described thus: Kinase competition binding assay, PIK4CB. The conditions noted are these: Table 1 kinase panel. The procedure:
(§1) Cannabis flavonoids and their analogs were subjected to kinase inhibition assay. The compounds were first screened at a single concentration of 10 μM in the primary assay. […]. To determine the kd or IC50 values, competition binding assays were established, authenticated and executed as described previously. Fabian et al., “A Small Molecule-Kinase Interaction Map For Clinical Kinase Inhibitors.”, Nat Biotechnol, 23(3):329-36, Epub (2005). See also, Karaman et al., “A Quantitative Analysis Of Kinase Inhibitor Selectivity”, Nat. Biotechnol. […] For most assays, kinases were fused to T7 phage strains (Fabian, supra) and for the other assays, kinases were produced in HEK-293 cells after which they were tagged with DNA for quantitative PCR detection. In general, full-length constructs were used for small, single domain kinases, and catalytic domain constructs for large multi-domain kinases. The binding assays utilized streptavidin-coated magnetic beads treated with biotinylated small molecule ligands for 30 minutes at room temperature which generated affinity resins for the kinase assays. The liganded beads were blocked with excess biotin and washed with blocking buffer (SeaBlock (Pierce), 1% BSA, 0.05% Tween 20, 1 mM DTT) to remove unbound ligand and to reduce non-specific phage binding. […] Test compounds were prepared as 40× stocks in 100% DMSO and diluted directly into the assay (Final DMSO concentration=2.5%). All reactions were performed in polypropylene 384-well plates in a final volume of 0.04 ml. […] The beads were then re-suspended in elution buffer (1×PBS, 0.05% Tween 20, 0.5 μM non-biotinylated affinity ligand) and incubated at room temperature with shaking for 30 minutes. The kinase concentration in the eluates was measured by quantitative PCR. An illustration of the kinase interaction process is presented below. Kd/IC50 values were determined using a standard dose response curve using the hill equation. Curves were fitted using a non-linear least square fit with the Levenberg-Marquardt algorithm.
(§2) The compound(s) were screened at 10 μM and results for primary screen binding interactions are reported as ‘% Ctrl’, where lower numbers indicate stronger hits in the matrix.

The target in another experiment is T3, KIT(V559D) (Homo sapiens, UniProt P10721, V559D).
T3 construct: made in house
The experiment can be described thus: Kinase competition binding assay, KIT(V559D). The settings on record: Table 1 kinase panel. The procedure:
as §1, §2

The target of another experiment is T4, PASK (Homo sapiens, UniProt Q96RG2).
T4 construct: made in house
The experiment can be described thus: Kinase competition binding assay, PASK. The settings on record: Table 1 kinase panel. The procedure:
as §1, §2

The target of the next experiment is T5, PIM-1 (Homo sapiens, UniProt P11309).
T5 construct: full-length constructs were used for small, single domain kinases; T7 phage fusion (most assays) or DNA tag for qPCR (HEK-293-made kinases); made in house
Nature of the experiment: Kinase competition binding assay, PIM-1. The conditions noted are these: Table 1 kinase panel. The procedure: as §1, §2

The test system of a further experiment is U87 (Glioma). The experiment can be described thus: WST-1 anticancer cell proliferation assay, U87. Type of experiment: cell-based. The settings on record: 72 hours. The procedure: (§3) Bioactivity of the above-described compounds has been verified by an anticancer cell proliferation assay using the WST-1 (4-[3-(4-iodophenyl)-2-(4-nitrophenyl)-2H-5-tetrazolio]-1, 3-benzene disulfonate) colorimetric assay by Roche Life Sciences®. Anticancer activity was tested against several standard cancer cell lines including brain, breast, Kaposi sarcoma, leukemia, lung, melanoma, tenosynovial giant cell tumor, ovarian, pancreatic, colon and prostate cancer. Cells were trypsinized and plated into 96 well plates in 50 μl of media and incubated overnight. The next day approximately 18 hours after plating, 50 μl of media containing the required flavonoid-based pharmaceutical composition was added per well. Cells were plated at a density so that 72 hours post drug addition, the cells will be in log phase (500)-2000 cells/well). The compounds and extracts were solubilized in Dimethyl sulfoxide (DMSO). The cells are allowed to proliferate for 72 hours 37° C. in humidified atmosphere of 5% CO2. The experiment is terminated using WST-1 (Roche®) 10 μl per well and absorbance is read at 450 nm %690 nm. The effect of drugs on growth is assessed as percent of cell viability. The IC50 values were determined from the extract dose versus control growth curves using Graphpad Prism® software. All experiments were carried out in duplicate and the mean results determined.
(Formazan colour is commonly taken as a measure of viable cells.)

The target in the next experiment is T6, CK2a (Homo sapiens, UniProt P68400).
T6 construct: made in house
Nature of the experiment: Kinase competition binding assay, CK2a. The conditions noted are these: Table 1 kinase panel. The procedure: as §1, §2

The next experiment concerns the target T7, KIT (Homo sapiens, UniProt P10721).
T7 construct: made in house
Nature of the experiment: Kinase competition binding assay, KIT. The conditions noted are these: Table 1 kinase panel. The procedure:
as §1, §2

For the next experiment, the target named is T8, MELK (Homo sapiens, UniProt Q14680).
T8 construct: made in house
The experiment can be described thus: Kinase competition binding assay, MELK. The conditions noted are these: Table 1 kinase panel. The procedure:
as §1, §2

A further experiment relates to NCI-H69 (Small lung). The experiment can be described thus: WST-1 anticancer cell proliferation assay, NCI-H69. The settings on record: 72 hours. Type of experiment: cell-based. The procedure:
as §3

A further experiment concerns the target T9, FGR (Homo sapiens, UniProt P09769).
T9 construct: made in house
The experiment can be described thus: Kinase competition binding assay, FGR. The settings on record: Table 1 kinase panel. The procedure:
as §1, §2

In general, IC50 refers to the midpoint of a concentration-inhibition curve. A high value points to weaker potency in that assay. Turning to `COc1cc(-c2cc(=O)c3c(O)c(C/C=C(\C)CCC=C(C)C)c(O)cc3o2)ccc1O` [FBL-03A], the IC50 is 2.57 µM against SIRT-2; 670 nM on PIK4CB; 200 nM on KIT(V559D); over 20000 nM on PASK; over 20000 nM on PIM-1; 34 µM in the experiment on U87 (Glioma). Also, the IC50 was 740 nM at CK2a; 350 nM at KIT; over 20000 nM at MELK; 16 µM in the experiment on NCI-H69 (Small lung); over 20000 nM at FGR.
On to `COc1cc(-c2cc(=O)c3c(O)c(CC=C(C)C)c(O)cc3o2)ccc1O` [FBL-03B], for which the IC50 is 10.8 µM against SIRT-2; under 1000 nM on KIT(V559D); 2060 nM at PASK; 6.2 µM with U87 (Glioma); 768 nM at CK2a; under 1000 nM on KIT. Further, the 50% inhibitory concentration (IC50) on MELK turned out to be 232 nM; with NCI-H69 (Small lung), 11 µM; at FGR, 224 nM.
For `COc1cc(-c2cc(=O)c3c(O)cc(O)c(C/C=C(\C)CCC=C(C)C)c3o2)ccc1O` [FBL-03C], the IC50 was 14 µM against SIRT-2; over 1000 nM on PIK4CB; over 1000 nM on KIT(V559D); over 20000 nM on PASK; over 1000 nM at PIM-1; 12.5 µM with U87 (Glioma). Also, the IC50 at CK2a is 58 nM; on KIT, over 1000 nM; on MELK it was over 1000 nM; with NCI-H69 (Small lung), 18 µM; at FGR, over 20000 nM.
Turning to `COc1ccc(-c2cc(=O)c3c(O)c(C/C=C(\C)CCC=C(C)C)c(O)cc3o2)cc1OC` [FBL-03D], the IC50 on SIRT-2 is 2.38 µM; on PIK4CB it was over 30000 nM; at KIT(V559D) it was over 30000 nM; on PASK, over 30000 nM; at PIM-1, over 30000 nM; on CK2a, over 30000 nM. Further, the IC50 at KIT, at MELK and on FGR was over 30000 nM in each case.
`COc1cc(-c2cc(=O)c3c(O)cc(O)c(CC=C(C)C)c3o2)ccc1O` [FBL-03G]: the IC50 is 24.1 µM on SIRT-2; over 20000 nM on PIK4CB; under 1000 nM at KIT(V559D); 116 nM on PASK; 78 nM on PIM-1; 5.46 µM in the experiment with U87 (Glioma). Also, the IC50 was 38 nM at CK2a; under 1000 nM on KIT; 105 nM at MELK; 9.5 µM in the experiment with NCI-H69 (Small lung); 880 nM on FGR.

These data come from patent publication US20180353462A1, “[…] AGENTS […] FLAVONOID DERIVATIVES TARGETING KINASES, SIRTUINS AND ONCOGENIC AGENTS FOR THE TREATMENT OF CANCERS” (priority 2015, published 2018).
